This note sets out measurements from ChEMBL document CHEMBL1201862, “PubChem BioAssay data set” (2004).

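A five-concentration, 48-hour dose response in 96-well plates underlies each endpoint, interpolated linearly between surrounding concentrations. GI50 is the concentration that inhibits growth by half.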 Calls of active or inactive are those of the source. Cut-off read from the data, not from the text of the source: active = GI50 up to about 1.1 µM and inactive = higher.

Common to all, as to assay: DTP human tumour cell line panel, 48 h
Test [1] concerns HCT-15.
Test [2] has as its system SK-MEL-5.
The subject of test [3] is OVCAR-3.
Test [4] concerns TK-10.
In test [5] the test system is UACC-257.
The test system of test [6] is HOP-62.
The test system of test [7] is SN12C.
The subject of test [8] is DLD-1.
Test [9] deals with DMS-273.
For test [10], the system named is CCRF-CEM.
Test [11] concerns MOLT-4.
Test [12] has as its system UACC-62.
Test [13] relates to LXFL 529.
In test [14] the test system is SK-MEL-2.
In test [15] the test system is U-251.
In test [16] the test system is MCF7.
For test [17], the system named is NCI-H226.
Test [18] relates to DMS-114.

For `CCC1(O)C[C@H]2CN(CCCc3c([nH]c4ccccc34)[C@@](C(=O)OC)(c3cc4c(cc3OC)N(C)C3[C@](O)(C(=O)OC)[C@H](OC(C)=O)[C@]5(CC)C=CCN6CC[C@]43[C@H]65)C2)C1` (some centres not stated), the GI50 (commonly the concentration at which growth is held to half of that of the control) in test [1] is 2.99 µM; in test [2], 0.333 µM (active); in test [3], 0.281 µM (active); in test [4], > 10 µM (inactive); in [5], 1.34 µM (inactive); in test [6], 0.465 µM (active). For the same compound, the GI50 in [7] was 3.61 µM (inactive); in [8], 2.22 µM (inactive); in [9], 0.406 µM (active); in test [10], 0.453 µM (active); in [11] it was 0.586 µM (active); in [12], 0.525 µM (active). Besides, the GI50 in test [13] was 0.581 µM (active); in test [14], 0.63 µM (active); in test [15] it was 0.565 µM (active).

For the compound `CO[C@@]12[C@H](COC(N)=O)C3=C(C(=O)C(C)=C(N)C3=O)N1C[C@@H]1N[C@@H]12` [MITOMYCIN], the GI50 was 1.29 µM in test [1]; 3.07 µM (inactive) in test [3]; 4.86 µM (inactive) in test [4]; 0.148 µM (active) in test [16]; 1.21 µM (inactive) in test [5]; 2.8 µM (inactive) in [8]. For the same compound, the GI50 in [9] is 0.104 µM (active); in test [17], 0.714 µM (active); in [10], 0.229 µM (active); in test [11], 0.23 µM (active); in test [13], 2.55 µM (inactive); in test [14], 1.65 µM (inactive).

On to `CC(C)[C@@H](C)CC[C@@H](C)C1CC=C2[C@@H]3CCC4C[C@@H](O[Si](C)(C)C(C)(C)C)CC[C@]4(C)C3CC[C@@]21C` (some centres not stated), for which the GI50 was over 100 µM in [1]; > 100 µM (inactive) in test [2]; > 100 µM (inactive) in test [3]; > 100 µM (inactive) in [4]; > 100 µM (inactive) in test [5]; > 100 µM (inactive) in test [6]. For the same compound, the GI50 in test [7], in test [9], in [17], in [10], in [11] and in test [12] was > 100 µM (inactive) each time. Further, the GI50 in [13], in test [18], in test [14] and in test [15] was > 100 µM (inactive) each time.

Take `ClC1CCC2OOC1O2` (configuration not stated): the 50% growth inhibitory concentration (GI50) was 87.3 µM in [1]; > 100 µM (inactive) in [2]; > 100 µM (inactive) in [3]; > 100 µM (inactive) in test [4]; > 100 µM (inactive) in test [5]; > 100 µM (inactive) in test [6]. Further, the GI50 in test [7] was > 100 µM (inactive); in test [9] it was > 100 µM (inactive); in [17], > 100 µM (inactive); in test [10], 54 µM (inactive); in test [11], > 100 µM (inactive); in test [12], 89.1 µM (inactive). Moreover, the values for the GI50 in test [18], in test [14] and in test [15] were 43.7 µM (inactive), > 100 µM (inactive) and > 100 µM (inactive), respectively.

With `CCCCCCCC(=O)OC[C@@H](C[As](=O)(O)O)OC(=O)CCCCCCC`, the GI50 in test [1] is 10.1 µM; in test [2] it was 13.9 µM (inactive); in test [5], 16.4 µM (inactive); in test [6] it was 18.7 µM (inactive); in [7], 11.2 µM (inactive); in test [8], 13.6 µM (inactive). The GI50 is 12.1 µM (inactive) in test [9]; 6.58 µM (inactive) in [17]; 1.88 µM (inactive) in test [10]; 2.58 µM (inactive) in test [11]; 11.3 µM (inactive) in [12]; 11.9 µM (inactive) in test [13]. Besides, the GI50 was 10.4 µM (inactive) in test [18] and 5.74 µM (inactive) in test [15].
